Laboratory results from paper PMC8408276, “Distinct neuropeptide-receptor modules regulate a sex-specific behavioral response to a pheromone” (Communications Biology, 2021).
“Also recorded” adds a separate entry of the source. Where a SMILES comes first, the peptide text is derived from it. Where no end group is shown, it is not given here.

How the values were obtained:
[1] = target: T1, FRPR-16 (Caenorhabditis elegans, UniProt Q21957); experiment: In vitro GPCR activation assay (CHO-K1, aequorin, Gα16), FRPR-16; assay type: cell-based, C. elegans; details: for EC50: FRPR-16 in CHO-K1 cells with mtAEQ aequorin and human Gα16, peptide 1 pM to 10 µM, n ≥ 6, Fig. 4i
T1 sequence (Q21957 1-340): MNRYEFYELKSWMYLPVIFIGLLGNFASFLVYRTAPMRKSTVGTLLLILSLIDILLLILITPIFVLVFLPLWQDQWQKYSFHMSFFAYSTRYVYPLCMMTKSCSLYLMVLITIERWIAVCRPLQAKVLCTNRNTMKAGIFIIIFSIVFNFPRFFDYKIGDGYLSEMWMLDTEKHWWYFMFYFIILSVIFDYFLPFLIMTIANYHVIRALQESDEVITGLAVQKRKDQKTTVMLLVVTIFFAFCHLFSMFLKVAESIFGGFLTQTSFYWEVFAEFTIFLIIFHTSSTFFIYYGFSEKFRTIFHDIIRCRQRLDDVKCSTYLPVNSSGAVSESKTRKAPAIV
Procedure: (§1) The GPCR activation assay was performed as previously described[66],[74]. Briefly, npr-10 and frpr-16 cDNAs were cloned into the pcDNA3.1 TOPO expression vector (Thermo Fisher Scientific). A CHO-K1 cell line (PerkinElmer, ES-000-A24) stably expressing apo-aequorin targeted to the mitochondria (mtAEQ) and human Gα16 was transiently transfected with the receptor cDNA construct or the empty pcDNA3.1 vector using Lipofectamine LTX and Plus reagent (Thermo Fisher Scientific). Cells were shifted to 28 °C one day later and allowed to incubate for 24 h. On the day of the assay, cells were collected in BSA medium (DMEM/Ham’s F12 with 15 mM HEPES, without phenol red, 0.1% BSA) and loaded with […] coelenterazine h (Thermo Fisher Scientific) for 4 h at room temperature. The incubated cells were then added to synthetic peptides dissolved in DMEM/BSA, and luminescence was measured for 30 s at 496 nm using a Mithras LB940 (Berthold Technologies) or MicroBeta LumiJet luminometer (PerkinElmer). After 30 s of readout, 0.1% triton X-100 was added to lyse the cells, resulting in a maximal calcium response that was measured for 10 s. After initial screening, concentration-response curves were constructed for HPLC-purified FLP-3 peptides by subjecting the transfected cells to each peptide in a concentration range from 1 pM to 10 µM. Cells transfected with an empty vector were used as a negative control. Assays were performed in triplicate on at least two independent days. Concentration-response curves were fitted using Prism v. 7 (nonlinear regression analysis with a sigmoidal concentration-response equation).

[2] = target: T2, NPR-10B (Caenorhabditis elegans, UniProt Q6EUU1); experiment: In vitro GPCR activation assay (CHO-K1, aequorin, Gα16), NPR-10B; assay type: cell-based, C. elegans; details: for EC50: NPR-10B in CHO-K1 cells with mtAEQ aequorin and human Gα16, peptide 1 pM to 10 µM, n ≥ 6, Fig. 4i
T2 sequence (Q6EUU1 1-362): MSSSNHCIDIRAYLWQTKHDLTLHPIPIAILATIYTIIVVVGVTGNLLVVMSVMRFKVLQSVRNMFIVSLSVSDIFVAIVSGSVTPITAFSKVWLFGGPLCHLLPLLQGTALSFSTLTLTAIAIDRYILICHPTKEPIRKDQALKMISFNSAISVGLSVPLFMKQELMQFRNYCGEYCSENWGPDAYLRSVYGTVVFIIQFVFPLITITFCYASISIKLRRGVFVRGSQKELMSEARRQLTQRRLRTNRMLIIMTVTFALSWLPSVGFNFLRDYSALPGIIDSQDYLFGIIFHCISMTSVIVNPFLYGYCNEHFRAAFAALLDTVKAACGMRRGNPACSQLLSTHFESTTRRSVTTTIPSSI
Procedure: as §1

[3] = system: NPR-10A; experiment: In vitro GPCR activation assay (CHO-K1, aequorin, Gα16), NPR-10A; assay type: cell-based, C. elegans; details: CHO-K1 aequorin/Gα16 calcium response; Supplementary Fig. 10a
Procedure: This peptide contains an R-to-K mutation within the C-terminal motif, which may explain the lack of receptor activation.
as §1, with “After initial screening, concentration-response curves were constructed for HPLC-purified FLP-3 peptides by subjecting the transfected cells to each peptide in a concentration range from 1 pM to 10 µM. Cells transfected with an empty vector were used as a negative control. Assays were performed in triplicate on at least two independent days. Concentration-response curves were fitted using Prism v. 7 (nonlinear regression analysis with a sigmoidal concentration-response equation).” left out

[4] = system: C. elegans; experiment: Single worm attraction assay (SWAA); assay type: in vivo; details: flp-3 lof males; Supplementary Fig. 5
Procedure: We adapted the spot retention assay (Supplementary Fig. 1)[28],[38] to allow for better characterization of individual worm behavior and robust interrogation of attraction to small molecules. We first compared the attractiveness of 1 µM ascr#8 (Fig. 1a, inset) across multiple strains of C. elegans (the wild-type N2 strain, the high incidence of male him-5 and him-8 strains, and the chemosensory cilia defective osm-3), using our novel behavioral assay, the single worm attraction assay (SWAA) (Fig. 1a). In this assay, individual animals are placed directly into the spot of the ascaroside cue (A) while simultaneously removing any potential of male–male contact. A spatial control is included throughout the assay plate to allow us to investigate any innate differences in the number of visits to the well center, or the time spent therein, of which we have only found one strain to date with differences in male dwell time (Fig. 1a). Likewise, a vehicle control (V) is also included, to account of any changes in dwell time that are driven by the components of the vehicle. The outer forty wells of a 48-well suspension culture plate (Olympus Plastics, Cat #: 25-103) were seeded with 200 µL of standard NGM agar. To prepare the plates for the assay, they were acclimated to room temperature, at which point each well was seeded with 65 µL of OP50 E. coli. […] A single worm was placed in each of the 10 wells to be assayed, and the plate was transferred to a light source and camera and recorded for 15 m. […] Raw dwell time values were calculated by subtracting the time a worm exited the cue (center of the well in spatial controls), from the time it entered, as in the SRA[14]. This was determined per visit, and the average dwell time was calculated for each animal in the quadrant. Averages of the four-quadrant means were determined per plate, and a minimum of five plates were assayed per strain/condition. The mean raw dwell time across five plates was calculated and used for statistical analyses and graphical display. […] The number of visits per-worm was calculated, and the average visit count determined per quadrant, and per plate. The average visit count across five plates was calculated and used for statistical analyses and graphical display. An “attractive visit” was first determined for each plate as any visit greater than two standard deviations above the mean dwell time within the vehicle control for that plate. Any individual visit meeting this threshold was scored as a “1”, and any below was scored a “0”. The percent visits per-worm that were attractive was determined, and the average of each quadrant taken. […] The average percent of attractive visits across five plates was calculated and used for statistical analyses and graphical display. […]

[5] = CHO-K1 aequorin/Gα16 calcium response

Compound	EC50 ([1]; luminescence 30 s) [nM]	EC50 ([2]; luminescence 30 s) [nM]	other results
CSCC[C@H](NC(=O)[C@@H](NC(=O)CNC(=O)[C@H](CC(C)C)NC(=O)[C@@H]1CCCN1C(=O)[C@H](CCC(=O)O)NC(=O)[C@H](CCC(=O)O)NC(=O)[C@H](C)NC(=O)[C@@H](N)CCC(=O)O)[C@@H](C)O)C(=O)N[C@@H](CCCNC(=N)N)C(=O)N[C@@H](Cc1ccccc1)C(N)=O [FLP-3-3, EAEEPLGTMRFamide] (H-EAEEPLGTMRF-NH2)	288	867	–
EDGNAPFGTMKF-NH2 [FLP-3-6, flp-3 encoded peptide with R-to-K mutation within the C-terminal motif]	–	–	Activation of NPR-10A, in words [3]: activated no receptors; Activation of FRPR-16, in words [1, 5]: activated no receptors; also recorded: did not activate either receptor; Activation of NPR-10 (NPR-10B), in words [2, 5]: activated no receptors; also recorded: did not activate either receptor
C[C@H](CCCC/C=C/C(=O)O)O[C@@H]1O[C@@H](C)[C@H](O)C[C@H]1O [ascr#3]	–	–	Attractive response, in words [4]: no defect
CSCC[C@H](NC(=O)[C@@H](NC(=O)CNC(=O)[C@H](Cc1ccccc1)NC(=O)[C@@H]1CCCN1C(=O)[C@@H](NC(=O)[C@H](CC(=O)O)NC(=O)[C@H](CC(N)=O)NC(=O)[C@H](CCC(=O)O)NC(=O)[C@@H]1CCCN1C(=O)[C@@H](N)CC(N)=O)[C@@H](C)O)[C@@H](C)O)C(=O)N[C@@H](CCCNC(=N)N)C(=O)N[C@@H](Cc1ccccc1)C(N)=O [FLP-3-9, NPENDTPFGTMRFamide] (H-NPENDTPFGTMRF-NH2)	88.3	760	–
CSCC[C@H](NC(=O)[C@@H](NC(=O)CNC(=O)[C@H](Cc1ccccc1)NC(=O)[C@@H]1CCCN1C(=O)[C@H](C)NC(=O)[C@H](CO)NC(=O)[C@H](CC(=O)O)NC(=O)[C@H](CC(=O)O)NC(=O)[C@H](C)NC(=O)[C@@H](N)CO)[C@@H](C)O)C(=O)N[C@@H](CCCNC(=N)N)C(=O)N[C@@H](Cc1ccccc1)C(N)=O [FLP-3-8, SADDSAPFGTMRFamide] (H-SADDSAPFGTMRF-NH2)	–	–	EC50 [1]: 1600 nM

Further lines, with some results ahead:

EC50 ([1]; luminescence 30 s) [nM]	EC50 ([2]; luminescence 30 s) [nM]	Compound	other results
31.7	367	CSCC[C@H](NC(=O)[C@@H](NC(=O)CNC(=O)[C@H](CC(C)C)NC(=O)[C@@H]1CCCN1C(=O)[C@@H](N)[C@@H](C)O)[C@@H](C)O)C(=O)N[C@@H](CCCNC(=N)N)C(=O)N[C@@H](Cc1ccccc1)C(N)=O [FLP-3-2, TPLGTMRFamide] (H-TPLGTMRF-NH2)	–
7.4	262	CSCC[C@H](NC(=O)[C@@H](NC(=O)CNC(=O)[C@H](CC(C)C)NC(=O)[C@@H]1CCCN1C(=O)[C@@H](N)CO)[C@@H](C)O)C(=O)N[C@@H](CCCNC(=N)N)C(=O)N[C@@H](Cc1ccccc1)C(N)=O [FLP-3-1, SPLGTMRFamide] (H-SPLGTMRF-NH2)	–
72.1	–	CSCC[C@H](NC(=O)[C@@H](NC(=O)CNC(=O)[C@H](Cc1ccccc1)NC(=O)[C@H](CC(C)C)NC(=O)[C@H](C)NC(=O)[C@H](CC(=O)O)NC(=O)[C@H](CCC(=O)O)NC(=O)[C@H](CO)NC(=O)[C@H](C)N)[C@@H](C)O)C(=O)N[C@@H](CCCNC(=N)N)C(=O)N[C@@H](Cc1ccccc1)C(N)=O [FLP-3-5, ASEDALFGTMRFamide] (H-ASEDALFGTMRF-NH2)	EC50 [2]: 1100 nM
39.5	439	CSCC[C@H](NC(=O)[C@@H](NC(=O)CNC(=O)[C@H](Cc1ccccc1)NC(=O)[C@@H]1CCCN1C(=O)[C@H](CCC(=O)O)NC(=O)[C@H](C)NC(=O)[C@@H](N)CO)[C@@H](C)O)C(=O)N[C@@H](CCCNC(=N)N)C(=O)N[C@@H](Cc1ccccc1)C(N)=O [FLP-3-7, SAEPFGTMRFamide] (H-SAEPFGTMRF-NH2)	–
10.7	427	CSCC[C@H](NC(=O)[C@@H](NC(=O)CNC(=O)[C@H](CC(C)C)NC(=O)[C@@H]1CCCN1C(=O)[C@@H](N)CC(N)=O)[C@@H](C)O)C(=O)N[C@@H](CCCNC(=N)N)C(=O)N[C@@H](Cc1ccccc1)C(N)=O [FLP-3-4, NPLGTMRFamide] (H-NPLGTMRF-NH2)	–
